Laboratory results from patent US6861544B1, “Fluorous tin compounds an methods of using fluorous tin compounds” (University of Pittsburgh, priority 2000, dated 2005).

Columns and labels:
[1] = Partition coefficient of fluorous tin hydrides, FC-72/CH3CN (GC); assay type: physicochemical; conditions: FC-72 (1 mL) / acetonitrile (1 mL), stirred 10 min, GC relative peak area, n-octadecane internal standard
Procedure: (§1) Measurement of the Partition Coefficient of Fluorous Tin hyrides 4a-c. Fluorous tin hydrides (2-12 mg) were stirred with FC-72 (1 mL) and benzene (1 mL) or acetonitrile (1 mL) for 10 min. After separation, n-octadecane was added to both phases as an internal standard (for FC-72 phase, the solvent was evaporated and ethyl acetate (1 mL) was added to dissolve both the tin hydride and n-ocadecane). An aliquot (10 uL) of each phase was injected to GC for three times and the relative peak area was used to calculate the following partition coefficients of tin hydrides: FC-72/CH3CN, 4a, 2.4; 4b, 14; 4c, 48; FC-72/benzene, 4a, 0.7; 4b, 2.5; 4c, 4.7.

[2] = Partition coefficient of fluorous tin hydrides, FC-72/benzene (GC); assay type: physicochemical; conditions: FC-72 (1 mL) / benzene (1 mL), stirred 10 min, GC relative peak area, n-octadecane internal standard
Procedure: as §1

[3] = conditions of the reduction of FIG. 4

Row | SMILES | partition coefficient FC-72/CH3CN [1] | partition coefficient FC-72/benzene [2] | solubility in t-butanol [3]
1 | [CH3][SnH]([CH3])[CH2]CC(F)(F)C(F)(F)C(F)(F)C(F)(F)C(F)(F)C(F)(F)F [4a, Dimethyl-(3,3,4,4,5,5,6,6,7,7,8,8,8-tridecafluorooctyl)stannane] | 2.4 | 0.7 | –
2 | [CH3][SnH]([CH3])[CH2]CC(F)(F)C(F)(F)C(F)(F)C(F)(F)C(F)(F)C(F)(F)C(F)(F)C(F)(F)F [4b, Dimethyl-(3,3,4,4,5,5,6,6,7,7,8,8,9,9,10,10,10-heptadecafluorodecyl)stannane] | 14 | 2.5 | –
3 | [CH3][SnH]([CH3])[CH2]CC(F)(F)C(F)(F)C(F)(F)C(F)(F)C(F)(F)C(F)(F)C(F)(F)C(F)(F)C(F)(F)C(F)(F)F [4c, Dimethyl-(3,3,4,4,5,5,6,6,7,7,8,8,9,9,10,10,11,11,12,12,12-heneicosafluorododecyl)stannane] | 48 | 4.7 | –
4 | FC(F)(F)C(F)(F)C(F)(F)C(F)(F)C(F)(F)C(F)(F)C[CH2][SnH]([CH2]CC(F)(F)C(F)(F)C(F)(F)C(F)(F)C(F)(F)C(F)(F)F)[CH2]CC(F)(F)C(F)(F)C(F)(F)C(F)(F)C(F)(F)C(F)(F)F [(C6F13CH2CH2)3SnH] | – | – | insoluble or nearly insoluble
